Where “and” joins values, the source holds several entries; their conditions need not be identical. Identical values can stand only once.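 Tested at 5 concentrations; 48 h exposure; 96-well plates; endpoints linearly interpolated, else capped at highest concentration. Abbreviation: GI50, concentration required for 50% inhibition of growth. Definition used: TGI = concentration required for complete inhibition of growth.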
Columns and labels:
Assay in all cases: DTP human tumour cell line panel, 48 h
HL-60(TB) leukemia = tested on: HL-60(TB) leukemia
HS 578T breast = tested on: HS 578T breast
NCI-H522 lung = tested on: NCI-H522 lung
NCI-H460 lung = tested on: NCI-H460 lung
MDA-MB-435 = tested on: MDA-MB-435
NCI-H23 lung = tested on: NCI-H23 lung
SN12C renal = tested on: SN12C renal
A498 renal = tested on: A498 renal
HT29 colon = tested on: HT29 colon
M14 melanoma = tested on: M14 melanoma

Row | SMILES | TGI (HL-60(TB) leukemia) | TGI (HS 578T breast) | TGI (NCI-H522 lung) | TGI (NCI-H460 lung) | TGI (MDA-MB-435) | GI50 (NCI-H23 lung) | TGI (NCI-H23 lung) | TGI (SN12C renal) | GI50 (A498 renal) | TGI (A498 renal) | TGI (HT29 colon) | TGI (M14 melanoma) | GI50 (HL-60(TB) leukemia) | GI50 (HS 578T breast) | GI50 (NCI-H522 lung) | GI50 (NCI-H460 lung) | GI50 (MDA-MB-435) | GI50 (SN12C renal) | GI50 (HT29 colon) | GI50 (M14 melanoma)
1 | c1ccc2c(CN3CCC(C4CCN(Cc5cccc6ccccc56)CC4)CC3)cccc2c1 | 4.5 µM and 26.1 µM | > 100 µM | 26.3 µM and 23.4 µM | 52.4 µM and 46.8 µM | 11.4 µM | 23.2 µM and > 100 µM | > 100 µM | > 100 µM | 7.34 µM | > 72.8 µM and 86 µM | 11.7 µM and 11.2 µM | 3.59 µM and 3.89 µM |  |  |  |  |  |  |  | 
2 | O=CN1N=C(c2ccc(Nc3ccnc4cc(Cl)ccc34)cc2)CC1c1ccc(Cl)cc1 (configuration not stated) | > 100 µM | > 100 µM | 30.2 µM | > 100 µM | 0.48 µM | 2.77 µM | > 100 µM | > 100 µM | > 100 µM | > 100 µM | 8.5 µM | > 100 µM | 0.376 µM | 3.93 µM | 0.386 µM | 0.592 µM | 0.198 µM | 0.978 µM | 0.407 µM | 0.622 µM
3 | Cn1ncnc1C1c2n[nH]c(=O)c3cc(F)cc(c23)NC1c1ccc(F)cc1 (configuration not stated) | > 100 µM | > 100 µM | > 100 µM | > 100 µM | > 100 µM |  | > 100 µM | > 100 µM | 5 µM | > 94.3 µM | > 100 µM | > 100 µM | 4.86 µM | > 100 µM | > 100 µM | 0.193 µM | > 100 µM | 4.43 µM | > 100 µM | 3.52 µM
4 | COc1cc2nncc(SCc3ccc(Cl)c(Cl)c3)c2cc1OC | > 100 µM | > 100 µM | > 100 µM | > 100 µM | > 100 µM |  | > 100 µM | > 100 µM |  | > 100 µM | > 100 µM | > 100 µM |  |  |  |  |  |  |  | 
5 | Nc1cc(-c2ccccc2)n(C(=O)Nc2ccc(Oc3ccccc3)cc2)n1 | > 100 µM | > 100 µM | > 100 µM | > 100 µM | > 100 µM | > 100 µM | > 100 µM | > 100 µM | > 100 µM | > 100 µM | > 100 µM | > 100 µM | 47.8 µM | 31.9 µM | 54.7 µM | 69 µM | > 100 µM | 80.3 µM | 19.1 µM | > 100 µM
6 | COc1cc(-c2oc3c(OC)c(O)cc(O)c3c(=O)c2OC)ccc1O | > 33.3 µM | 6.83 µM | > 37.2 µM | > 93.5 µM | 52.3 µM |  | > 100 µM | > 100 µM |  | 17.2 µM | > 100 µM | > 31.3 µM |  |  |  |  |  |  |  | 
7 | COC1OC(C(C)O)C2OC(C)(C)OC12 (configuration not stated) | > 100 µM | > 100 µM | > 100 µM | > 100 µM | > 100 µM |  | > 100 µM | > 100 µM |  | > 100 µM | > 100 µM | > 100 µM |  |  |  |  |  |  |  | 
8 | Cc1ccc([N+](=O)[O-])c2c(NCCC[N+](C)(C)[O-])ccnc12 | > 100 µM | > 100 µM | 32.6 µM | 80.1 µM | > 100 µM |  | > 100 µM | > 100 µM |  | 90.5 µM | > 100 µM | > 100 µM |  |  |  |  |  |  |  | 
9 | CCCC(CCC)C(=O)OCC1(CO)C/C(=C\c2ccc(C(F)(F)F)cc2)C(=O)O1 (configuration not stated) | 8.13 µM | 30 µM | 31.4 µM | 21.7 µM | 19.3 µM | 15.8 µM | 32.1 µM | 25.7 µM | 0.105 µM | 10.3 µM | 30.6 µM | 23.2 µM | 0.308 µM | 12.1 µM | 15.1 µM | 3.04 µM | 0.304 µM | 11.9 µM | 14.4 µM | 10.7 µM
10 | COc1cc2c3cc1Oc1c(OC)c(OC)cc4c1C(Cc1ccc(cc1)Oc1cc(ccc1O)CC3N(C)CC2)N(C)CC4 (configuration not stated) | 30.5 µM and 7.29 µM | 31.4 µM | 14.2 µM and 20.5 µM | 32.6 µM and 17.3 µM | 31.9 µM |  | 48.1 µM and 26.3 µM | 61.3 µM and 30.6 µM |  | 32.9 µM | 20.9 µM and 14.1 µM | 4.27 µM and 4.79 µM | 5.61 µM and 1.88 µM |  | 1.57 µM and 4.86 µM | 14.5 µM and 4.72 µM |  |  |  | 
11 | Clc1ccc(/C=C/c2nc(Cl)c(-c3ccc(Cl)cc3)c(Cl)n2)cc1 | > 100 µM | > 100 µM | > 100 µM | > 100 µM | > 100 µM |  | > 100 µM | > 100 µM |  | > 100 µM | > 100 µM | > 100 µM |  |  |  |  |  |  |  | 
12 | Cc1c(C(N)=O)sc2c1c(=O)n(Cc1ccccc1)c1nnc(S(=O)(=O)CC(=O)Nc3ccc(Cl)cc3)n21 | > 100 µM | > 100 µM | 6.73 µM | 7.64 µM | 17 µM | 3.13 µM | 9.71 µM | 28.2 µM | 1.26 µM | 4.21 µM | 26 µM | 21.2 µM | 40.7 µM | 2.67 µM | 2.53 µM | 2.87 µM | 3.61 µM | 4.67 µM | 6.82 µM | 5.3 µM
13 | CN(CCCN(C)CCC1CCCCC1)CCC1CCCCC1 | 8.61 µM | 6.68 µM | 4.36 µM | 6.7 µM | 2.27 µM | 8.7 µM | 22.1 µM | 20.6 µM | 5.14 µM | 13.8 µM | 2.37 µM | 2.59 µM | 0.319 µM | 2.26 µM | 1.77 µM | 2.65 µM | 0.755 µM | 6.49 µM | 0.475 µM | 1.27 µM
14 | CC1=NN(C(=O)c2nn(-c3ccc(Cl)cc3)cc2O)C(=O)C1 | 7.46 µM | > 100 µM | > 86.5 µM | > 52.7 µM | > 100 µM | 3.03 µM | > 100 µM | > 100 µM | 2.92 µM | > 82 µM | > 100 µM | > 53.5 µM | 1.17 µM | 0.34 µM | 1.44 µM | 0.41 µM | 4.12 µM | 1.81 µM | 4.44 µM | 2.8 µM
15 | CCN(CC)CCC(=O)O[C@H]1CC[C@H](CC(C)[C@H]2CC(=O)C(C)C=C(C)[C@H](OC(=O)CCN(CC)CC)C(OC)C(=O)[C@@H](C)CC(C)/C=C/C=C/C=C(C)C(OC)CC3CC[C@H](C)[C@](O)(O3)C(=O)C(=O)N3CCCCC3C(=O)O2)CC1OC (some centres not stated) | 4.48 µM and 1.16 µM | 2.28 µM | 1.98 µM and 1.89 µM | 3.48 µM and 2.69 µM | 2.35 µM and 2.04 µM | 1.28 µM | > 10 µM and 3.53 µM | 4.28 µM and 2.17 µM |  | 1.11 µM | 2.57 µM and 2.44 µM | 2.62 µM and 2.2 µM | 1.83 µM and 0.345 µM |  | 0.017 µM | 0.292 µM and 1.34 µM | 1.14 µM | 1.42 µM | 1.07 µM | 0.871 µM
